Test results taken from US6737383B1, “Herbicidal oxadiazolidines” (priority 1999, dated 2004).

Tests used:
rape = assay: Test B pre/postemergence rape; assay type: in vivo, Brassica napus
How it was run: (§1)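 Response is a visual 0-to-10 score relative to untreated plants, where 0 means no effect and 10 means complete control, taken twelve to sixteen days after application. Treatments went onto soil at planting and onto foliage of 1- to 4-leaf plants, using a surfactant-containing non-phytotoxic solvent.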

pigweed = assay: Test B pre/postemergence pigweed; assay type: in vivo, Amaranthus retroflexus
How it was run: as §1

corn = assay: Test B pre/postemergence corn; assay type: in vivo, Zea mays
How it was run: as §1

bedstraw = assay: Test B pre/postemergence bedstraw; assay type: in vivo, Galium aparine; conditions: Postemergence; for Plant response rating, Bedstraw: scale 0 to 10, 0 is no effect, 10 is complete control; for Bedstraw plant response rating: scale of 0 to 10 where 0 is no effect and 10 is complete control
How it was run: as §1

purple nutsedge = assay: Test B pre/postemergence purple nutsedge; assay type: in vivo, Cyperus rotundus
How it was run: as §1

giant foxtail = assay: Test B pre/postemergence giant foxtail; assay type: in vivo, Setaria faberii
How it was run: as §1

smallflower flatsedge = assay: Test B flood test smallflower flatsedge; assay type: in vivo, Cyperus difformis
How it was run: (§2)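 Flood test on plants grown to the 2-leaf stage; treated plants kept in greenhouse twelve to sixteen days, then visually rated against controls on a 0 (no effect) to 10 (complete control) scale.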

crabgrass = assay: Test B pre/postemergence crabgrass; assay type: in vivo, Digitaria sanguinalis
How it was run: as §1

duck salad = assay: Test B flood test duck salad; assay type: in vivo, Heteranthera limosa; conditions: for Plant response rating, Ducksalad: scale 0 to 10, 0 is no effect, 10 is complete control; for Ducksalad plant response rating: scale of 0 to 10 where 0 is no effect and 10 is complete control
How it was run: as §2

surinam grass = assay: Test B pre/postemergence surinam grass; assay type: in vivo, Brachiaria decumbens
How it was run: as §1

wheat = assay: Test B pre/postemergence wheat; assay type: in vivo, Triticum aestivum
How it was run: as §1

wild oat = assay: Test B pre/postemergence wild oat; assay type: in vivo, Avena fatua
How it was run: as §1

soybean = assay: Test B pre/postemergence soybean; assay type: in vivo, Glycine max
How it was run: as §1

rice = assay: Test B flood test rice; assay type: in vivo, Oryza sativa
How it was run: as §2

blackgrass = assay: Test B pre/postemergence blackgrass; assay type: in vivo, Alopecurus myosuroides
How it was run: as §1

bamyardgrass = assay: Test B flood test barnyardgrass; assay type: in vivo, Echinochloa crus-galli; conditions: for Plant response rating, Barnyardgrass: scale 0 to 10, 0 is no effect, 10 is complete control; for Barnyardgrass plant response rating: scale of 0 to 10 where 0 is no effect and 10 is complete control
How it was run: as §2

cocklebur = assay: Test B pre/postemergence cocklebur; assay type: in vivo, Xanthium strumarium
How it was run: as §1

velvetleaf = assay: Test B pre/postemergence velvetleaf; assay type: in vivo, Abutilon theophrasti
How it was run: as §1

sugar beet = assay: Test B pre/postemergence sugar beet; assay type: in vivo, Beta vulgaris
How it was run: as §1

morningglory = assay: Test B pre/postemergence morningglory; assay type: in vivo, Ipomoea hederacea
How it was run: as §1

[1] = Postemergence, Rate 250 g/ha, scale 0 to 10, 0 is no effect, 10 is complete control
[2] = Postemergence, Rate 500 g/ha, scale of 0 to 10 where 0 is no effect and 10 is complete control
[3] = Preemergence, Rate 62 g/ha, scale 0 to 10 (0 no effect, 10 complete control)
[4] = Preemergence, Rate 125 g/ha, scale of 0 to 10 where 0 is no effect and 10 is complete control
[5] = Preemergence, Rate 250 g/ha, scale 0 to 10, 0 is no effect, 10 is complete control
[6] = Preemergence, Rate 500 g/ha, scale 0 to 10, 0 is no effect, 10 is complete control
[7] = Postemergence, Rate 125 g/ha, scale 0 to 10, 0 is no effect, 10 is complete control
[8] = Rate 62 g/ha, Postemergence, scale of 0 to 10 where 0 is no effect and 10 is complete control
[9] = Postemergence section (flood test species), Rate 500 g/ha, scale of 0 to 10 where 0 is no effect and 10 is complete control
[10] = flood test species, listed under Postemergence, Rate 250 g/ha, scale 0 to 10, 0 is no effect, 10 is complete control
[11] = Postemergence (flood test), Rate 125 g/ha
[12] = Postemergence section (flood test species), Rate 500 g/ha
[13] = Rate 62 g/ha, Postemergence (flood test species)
[14] = flood test species, listed under Postemergence, Rate 250 g/ha
[15] = Preemergence, Rate 250 g/ha, scale of 0 to 10 where 0 is no effect and 10 is complete control

CC(C)Cn1c(=O)on(C(=O)N(c2ccc(Cl)cc2)C(C)C)c1=O [Compound 417]
Plant response rating, Rape (rape; [1]): 0 | Rape plant response rating (rape; [2]): 2 | Plant response rating, Rape (rape; [3]): 0 | Plant response rating, Rape (rape; [4]): 0 | Rape plant response rating (rape; [5]): 5 | Rape plant response rating (rape; [6]): 6 | Plant response rating, Redroot pigweed (pigweed; [1]): 0 | Redroot pigweed plant response rating (pigweed; [2]): 3 | Plant response rating, Redroot pigweed (pigweed; [3]): 0 | Plant response rating, Redroot pigweed (pigweed; [4]): 0 | Redroot pigweed plant response rating (pigweed; [5]): 4 | Redroot pigweed plant response rating (pigweed; [6]): 10 | Plant response rating, Corn (corn; [7]): 0 | Plant response rating, Corn (corn; [1]): 0 | Corn plant response rating (corn; [2]): 0 | Plant response rating, Corn (corn; [3]): 0 | Plant response rating, Corn (corn; [4]): 0 | Corn plant response rating (corn; [5]): 0 | Corn plant response rating (corn; [6]): 0 | Corn plant response rating (corn; [8]): 0 | Plant response rating, Bedstraw (bedstraw; Rate 125 g/ha): 0 | Plant response rating, Bedstraw (bedstraw; Rate 250 g/ha): 0 | Bedstraw plant response rating (bedstraw; Rate 500 g/ha): 6 | Bedstraw plant response rating (bedstraw; Rate 62 g/ha): 0 | Plant response rating, Nutsedge (purple nutsedge; [1]): 0 | Nutsedge plant response rating (purple nutsedge; [2]): 0 | Plant response rating, Nutsedge (purple nutsedge; [3]): 0 | Plant response rating, Nutsedge (purple nutsedge; [4]): 0 | Nutsedge plant response rating (purple nutsedge; [5]): 0 | Nutsedge plant response rating (purple nutsedge; [6]): 0 | Plant response rating, Giant foxtail (giant foxtail; [7]): 0 | Plant response rating, Giant foxtail (giant foxtail; [1]): 1 | Giant foxtail plant response rating (giant foxtail; [2]): 8 | Plant response rating, Giant foxtail (giant foxtail; [3]): 4 | Plant response rating, Giant foxtail (giant foxtail; [4]): 9 | Giant foxtail plant response rating (giant foxtail; [5]): 10 | Giant foxtail plant response rating (giant foxtail; [6]): 10 | Giant foxtail plant response rating (giant foxtail; [8]): 0 | S. Flatsedge plant response rating (smallflower flatsedge; [9]): 9 | Plant response rating, S. Flatsedge (smallflower flatsedge; [10]): 9 | Plant response rating, Crabgrass (crabgrass; [7]): 0 | Plant response rating, Crabgrass (crabgrass; [1]): 2 | Crabgrass plant response rating (crabgrass; [2]): 2 | Plant response rating, Crabgrass (crabgrass; [3]): 6 | Plant response rating, Crabgrass (crabgrass; [4]): 9 | Crabgrass plant response rating (crabgrass; [5]): 9 | Crabgrass plant response rating (crabgrass; [6]): 10 | Crabgrass plant response rating (crabgrass; [8]): 0 | Plant response rating, Ducksalad (duck salad; [11]): 0 | Ducksalad plant response rating (duck salad; [12]): 3 | Ducksalad plant response rating (duck salad; [13]): 0 | Plant response rating, Ducksalad (duck salad; [14]): 2 | Plant response rating, B. signalgrass (surinam grass; [7]): 0 | Plant response rating, B. signalgrass (surinam grass; [1]): 0 | B. signalgrass plant response rating (surinam grass; [2]): 0 | Plant response rating, B. signalgrass (surinam grass; [3]): 2 | Plant response rating, B. signalgrass (surinam grass; [4]): 3 | B. signalgrass plant response rating (surinam grass; [15]): 7 | B. signalgrass plant response rating (surinam grass; Preemergence, Rate 500 g/ha, scale of 0 to 10 where 0 is no effect and 10 is complete control): 7 | B. signalgrass plant response rating (surinam grass; [8]): 0 | Wheat plant response rating (wheat; [2]): 0 | Plant response rating, Wheat (wheat; [3]): 0 | Plant response rating, Wheat (wheat; [4]): 0 | Wheat plant response rating (wheat; [5]): 0 | Wheat plant response rating (wheat; [6]): 2 | Wild oats plant response rating (wild oat; [2]): 0 | Plant response rating, Wild oats (wild oat; [3]): 0 | Plant response rating, Wild oats (wild oat; [4]): 0 | Wild oats plant response rating (wild oat; [5]): 2 | Wild oats plant response rating (wild oat; [6]): 4 | Plant response rating, Soybean (soybean; [1]): 4 | Soybean plant response rating (soybean; [2]): 6 | Plant response rating, Soybean (soybean; [3]): 0 | Plant response rating, Soybean (soybean; [4]): 0 | Soybean plant response rating (soybean; [5]): 0 | Soybean plant response rating (soybean; [6]): 0 | Rice plant response rating (rice; [9]): 0 | Plant response rating, Rice (rice; [10]): 0 | Plant response rating, Blackgrass (blackgrass; [7]): 0 | Plant response rating, Blackgrass (blackgrass; [1]): 0 | Blackgrass plant response rating (blackgrass; [2]): 0 | Plant response rating, Blackgrass (blackgrass; [3]): 3 | Blackgrass plant response rating (blackgrass; [15]): 7 | Blackgrass plant response rating (blackgrass; [6]): 9 | Blackgrass plant response rating (blackgrass; [8]): 0 | Plant response rating, Barnyardgrass (bamyardgrass; [11]): 0 | Barnyardgrass plant response rating (bamyardgrass; [12]): 8 | Barnyardgrass plant response rating (bamyardgrass; [13]): 0 | Plant response rating, Barnyardgrass (bamyardgrass; [14]): 0 | Plant response rating, Cocklebur (cocklebur; [7]): 0 | Plant response rating, Cocklebur (cocklebur; [1]): 0 | Cocklebur plant response rating (cocklebur; [2]): 0 | Plant response rating, Cocklebur (cocklebur; [3]): 0 | Plant response rating, Cocklebur (cocklebur; [4]): 0 | Cocklebur plant response rating (cocklebur; [5]): 0 | Cocklebur plant response rating (cocklebur; [6]): 0 | Cocklebur plant response rating (cocklebur; [8]): 0 | Plant response rating, Velvetleaf (velvetleaf; [1]): 0 | Velvetleaf plant response rating (velvetleaf; [2]): 0 | Plant response rating, Velvetleaf (velvetleaf; [3]): 0 | Plant response rating, Velvetleaf (velvetleaf; [4]): 0 | Velvetleaf plant response rating (velvetleaf; [5]): 2 | Velvetleaf plant response rating (velvetleaf; [6]): 6 | Plant response rating, Sugarbeets (sugar beet; [1]): 0 | Sugarbeets plant response rating (sugar beet; [2]): 6 | Plant response rating, Sugarbeets (sugar beet; [3]): 0 | Plant response rating, Sugarbeets (sugar beet; [4]): 0 | Sugarbeets plant response rating (sugar beet; [5]): 2 | Sugarbeets plant response rating (sugar beet; [6]): 6 | Plant response rating, Morningglory (morningglory; [1]): 9 | Morningglory plant response rating (morningglory; [2]): 9 | Plant response rating, Morningglory (morningglory; [3]): 0 | Plant response rating, Morningglory (morningglory; [4]): 0 | Morningglory plant response rating (morningglory; [5]): 0 | Morningglory plant response rating (morningglory; [6]): 0
